Results reported in PubChem BioAssay (NCI).
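Results reflect a 48-hour exposure of cells in 96-well plates to compound at five concentrations. TGI marks complete inhibition of growth.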

Experiments:
Assay in all cases: DTP human tumour cell line panel, 48 h
PC-3 prostate = tested on: PC-3 prostate
RPMI-8226 leukemia = tested on: RPMI-8226 leukemia
IGROV1 ovarian = tested on: IGROV1 ovarian
OVCAR-5 ovarian = tested on: OVCAR-5 ovarian
UACC-62 melanoma = tested on: UACC-62 melanoma
U251 CNS = tested on: U251 CNS
NCI-H460 lung = tested on: NCI-H460 lung
HT29 colon = tested on: HT29 colon
HCT-15 colon = tested on: HCT-15 colon
SNB-75 CNS = tested on: SNB-75 CNS

SMILES | TGI (PC-3 prostate) | TGI (RPMI-8226 leukemia) | TGI (IGROV1 ovarian) | TGI (OVCAR-5 ovarian) | TGI (UACC-62 melanoma) | TGI (U251 CNS) | TGI (NCI-H460 lung) | TGI (HT29 colon) | TGI (HCT-15 colon) | TGI (SNB-75 CNS)
Cc1ccc(S(=O)(=O)N/N=C2/CCCOC2)cc1 | > 100 µM | > 100 µM | > 100 µM | > 100 µM | > 100 µM | > 100 µM | > 100 µM | > 100 µM | > 100 µM | –
CN=C(SC)N(C)c1nc(=[N+](C)C)ss1 | – | – | > 100 µM | > 100 µM | > 100 µM | > 100 µM | – | > 100 µM | > 100 µM | > 100 µM
COc1cc(Br)cc2cc(-c3cn4c(n3)sc3ccccc34)c(=O)oc12 | 41.2 µM | 49.8 µM | 34.9 µM | > 75 µM | > 75 µM | 72.1 µM | > 75 µM | > 75 µM | > 75 µM | –
CC(=O)O[C@H]1C(=O)[C@@]2(C)C(C(OC(=O)c3ccccc3)[C@]3(O)CC(OC(=O)C(O)C(NC(=O)c4ccc(C(F)(F)F)cc4)c4ccccc4)C(C)=C1C3(C)C)[C@]1(OC(C)=O)CO[C@@H]1C[C@@H]2O (some centres not stated) | – | 5.88 µM | > 37.5 µM | 3.95 µM | 0.269 µM | 2.43 µM | 0.783 µM | 0.237 µM | 13.5 µM | 0.00891 µM
CCOC(=O)CC(C)C1(C(=O)OCC)CCCCC1=O (configuration not stated) | – | 60.6 µM | > 100 µM | > 100 µM | > 100 µM | > 100 µM | > 100 µM | > 100 µM | 50 µM | > 100 µM
COC(=O)Nc1nc2ccc(S(=O)(=O)SC)cc2[nH]1 | 16.2 µM | > 100 µM | 15.3 µM | 45.1 µM | 22.5 µM | 29.9 µM | > 100 µM | 11.1 µM | 19.4 µM | –
Nc1ccc(Cc2c(N)[nH]c(=O)[nH]c2=O)cc1 | > 100 µM | > 100 µM | – | > 100 µM | > 100 µM | > 100 µM | > 100 µM | > 100 µM | > 100 µM | –
CC1S/C(=N\N=C2/C(=O)Nc3ccc(Br)cc32)N(C2CCCCC2)C1=O (configuration not stated) | 19.9 µM | > 100 µM | – | > 100 µM | 6.75 µM | 7.73 µM | 18.8 µM | 53.2 µM | 16 µM | –
CN(C)CC1CCCC(CN(C)C)C1OC(=O)c1ccccc1 (configuration not stated) | – | > 100 µM | > 100 µM | > 100 µM | > 100 µM | > 100 µM | > 100 µM | > 100 µM | > 100 µM | > 100 µM
Cc1cc(NS(=O)(=O)c2ccc(Nc3c4ccccc4nc4c(C(=O)N5CCN(CCO)CC5)cccc34)cc2)no1 | – | – | > 100 µM | > 100 µM | > 100 µM | > 100 µM | > 100 µM | > 100 µM | > 100 µM | > 100 µM
CCC(=O)Oc1ccc2c(c1)c(=O)c1c(NCCCN(C)C)ccc3nnn2c31 | 16.1 µM | 7.16 µM | 13.9 µM | 22.6 µM | 23.5 µM | 17 µM | 9.23 µM | 11.6 µM | 15.9 µM | –
CC(C)OC(=O)/C=C/C(=O)O/C=C/[N+](=O)[O-] | > 100 µM | 33.9 µM | 63 µM | > 100 µM | 84.7 µM | > 100 µM | > 100 µM | > 100 µM | > 100 µM | –
O=C(Nc1ccccc1-c1nc2ccccc2[nH]c1=O)c1ccccc1 | – | 44.9 µM | 70.6 µM | > 100 µM | 75.2 µM | 49.6 µM | 47.1 µM | > 100 µM | > 100 µM | 30.8 µM
Nc1nc(-[n+]2ccc(-c3ccncc3)cc2)nc(Cl)c1Cl | > 100 µM | > 100 µM | 33.3 µM | > 100 µM | > 100 µM | > 100 µM | > 100 µM | > 100 µM | > 100 µM | –
CC(CC[C@@]1(C)C(=O)CCC2O[C@]21C)[C@H]1C[C@@H](c2ccoc2)OC1=O (some centres not stated) | > 100 µM | 88.7 µM | > 100 µM | > 100 µM | > 100 µM | > 100 µM | > 100 µM | > 100 µM | > 100 µM | –
CCOC1=NC(O)c2cccn2-c2sccc21 (configuration not stated) | > 100 µM | > 100 µM | – | > 100 µM | > 100 µM | > 100 µM | > 100 µM | > 100 µM | > 100 µM | –
CCOC(=O)C1C(=O)CC1(C)C (configuration not stated) | > 10 µM | > 10 µM | > 10 µM | > 10 µM | > 10 µM | > 10 µM | > 10 µM | > 10 µM | > 10 µM | –
